{"source": "patent US6485922B1", "about": "“Methods for detecting compounds which modulate the activity of an LPA receptor” (Atairgin Technologies, Inc., priority 1997, dated 2002)", "key": {"yeast cells": {"tested_on": "yeast cells", "assay": "Toxicity of lipids to the yeast cells in the lacZ assay", "format": "cell-based, Saccharomyces cerevisiae", "conditions": "yeast culture", "experimental": "Expression of the EDG-2: To test the effects of the SST2 gene product on the edg-2 response to LPA, JEY5 (sst2Δ) expressing the EDG-2 receptor was compared to the parental SY2069 strain (SST2^+). […] As a control, JEY5+EDG-2 was assayed in 2% glucose such that the GAL1 promoter would be repressed and thus not expressing the edg-2 gene (glucose repression is described in detail by Johnston, M., and Carlson, M. (1992) in The molecular and cellular biology of the yeast Saccharomyces: gene expression (Broach, J. R., Pringle, J. R., and Jones, E. W., eds), pp. 193-281, Cold Spring Harbor Laborartory Press, Plainview, N.Y.). lacZ assays in response to phospholipids: JEY5+pJE15 was grown on SC media containing either 2% galactose or 2% glucose lacking uracil to an approximate optical density of 0.1-0.5 prior to the addition of lipid or α-factor. LPA and other glycerophospholipids (Avanti Polar Lipids) were dissolved in chloroform and dried down under vacuum immediately prior to experiments and resuspended in BBS/EDTA (50 mM NH4HCO3, 104 mM NaCl, 250 mM EDTA2Na) at 1 mg/ml with sonication until the solution was clear. Sphingosine-1-phosphate (Matreya) was resuspended in ethanol/water (9:1) pH 3.0 immediately prior to use. […] Color development was measured at A420 and normalized to A600. Units were expressed as Miller Units. […]"}, "human LPA receptor EDG-2": {"target": "T1, human LPA receptor EDG-2 (Homo sapiens, UniProt Q92633)", "T1 construct": "The EDG-2 coding region was amplified by RT-PCR using Pfu DNA polymerase; expressed in transfected cells; host or cells: Saccharomyces cerevisiae JEY5 (sst2-, far1, FUS1::lacZ), plasmid pYEUra3-Edg2 (pJE15), galactose-inducible", "T1 sequence (Q92633 whole entry)": "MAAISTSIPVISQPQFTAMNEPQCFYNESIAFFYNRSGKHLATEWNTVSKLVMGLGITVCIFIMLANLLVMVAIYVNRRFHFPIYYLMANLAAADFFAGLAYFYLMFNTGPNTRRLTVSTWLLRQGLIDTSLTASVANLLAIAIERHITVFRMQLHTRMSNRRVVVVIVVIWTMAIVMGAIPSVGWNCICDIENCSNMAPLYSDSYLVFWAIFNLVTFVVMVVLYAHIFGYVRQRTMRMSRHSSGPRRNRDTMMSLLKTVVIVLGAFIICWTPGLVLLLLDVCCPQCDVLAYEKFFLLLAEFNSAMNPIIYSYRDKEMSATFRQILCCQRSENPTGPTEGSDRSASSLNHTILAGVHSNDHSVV", "assay": "FUS1::lacZ (β-galactosidase) reporter assay in yeast expressing EDG-2", "format": "cell-based", "conditions": "for activation of EDG-2 (FUS1::lacZ activity): concentrations up to 200 μM, S.C.+2% galactose; for activity towards EDG-2 of liposome preparations on their own: liposomes without LPA", "experimental": "SY2069 (Mata, far1-bad3, HIS3::pFUS1::HIS3, mfa2-Δ1::pFUS1::lacZ, ura3, leu2, ade1, arg4, trp1) was used to derive an sst2^− strain for subsequent studies. SST2 was disrupted using pBC14 (Dohlman, H. G., et al. (1996) Mol. Cell. Biol. 16(9), 5194-5209). pBC14 was digested with NcoI and transformed into SY2069 by lithium acetate using the URA3 gene for selection. Ura^+ colonies were grown in non-selective media (YEPD) and plated onto media containing 5-Flouro-orotic Acid (5-FOA, Sigma). The resultant 5-FOA resistant isolates were tested for the supersensitive phenotype by assaying lacZ activity in response to α-factor (data not shown). One sst2^− strain was named JEY5 and used in all subsequent studies. Yeast were grown in SC+2% Galactose or 2% Glucose media lacking Uracil.\nConstruction of EDG-2 Expression Plasmid and Expression in Yeast: The EDG-2 coding region was amplified by RT-PCR using Pfu DNA polymerase under conditions described by the supplier (Stratagene). The template for RT-PCR was cDNA (5 ng) that was reverse transcribed from human fetal brain total RNA (Clontech) using SuperScript II Reverse Transcriptase as described by the supplier (Gibco BRL). 1 μM each of the following primers, FP; 5′-[…]-3′ (SEQ ID NO. 2) and RP; 5′-[…]-3′ (SEQ ID NO. 3), were used for RT-PCR. Oligonucleotide Synthesis and DNA Sequencing: PCR primers and DNA sequencing primers were synthesized by the phosphoramidite method with an Applied Biosystems model 394 synthesizer, purified by polyacrylamide gel electrophoresis and desalted on Sep-Pak C18 cartridges (Waters Associates, Milford, Mass.). The edg-2 cDNA was sequenced in pYEUra3 by the dideoxy chain termination method using the T7 Sequenase7-deaza-dGTP sequencing kit as described by the supplier (Amersham Life Science). The primers were designed based on the human edg-2 cDNA sequence submitted to Genbank by Zondag and Moolenaar (accession no. Y09479) and included restriction site extensions for subcloning into the pYEUra3 vector (Stratagene). This placed the cDNA under the control of a galactose-inducible promoter (UASgal). The resulting plasmid was used to transform JEY5 by the lithium acetate method.\nExpression of the EDG-2: To test the effects of the SST2 gene product on the edg-2 response to LPA, JEY5 (sst2Δ) expressing the EDG-2 receptor was compared to the parental SY2069 strain (SST2^+). […] As a control, JEY5+EDG-2 was assayed in 2% glucose such that the GAL1 promoter would be repressed and thus not expressing the edg-2 gene (glucose repression is described in detail by Johnston, M., and Carlson, M. (1992) in The molecular and cellular biology of the yeast Saccharomyces: gene expression (Broach, J. R., Pringle, J. R., and Jones, E. W., eds), pp. 193-281, Cold Spring Harbor Laborartory Press, Plainview, N.Y.). lacZ assays in response to phospholipids: JEY5+pJE15 was grown on SC media containing either 2% galactose or 2% glucose lacking uracil to an approximate optical density of 0.1-0.5 prior to the addition of lipid or α-factor. LPA and other glycerophospholipids (Avanti Polar Lipids) were dissolved in chloroform and dried down under vacuum immediately prior to experiments and resuspended in BBS/EDTA (50 mM NH4HCO3, 104 mM NaCl, 250 mM EDTA2Na) at 1 mg/ml with sonication until the solution was clear. Sphingosine-1-phosphate (Matreya) was resuspended in ethanol/water (9:1) pH 3.0 immediately prior to use. Fatty Acid Free Bovine Serum Albumin was obtained from Sigma (St. Louis, Mo.) and used at 0.1 mg/ml in BBS/EDTA. Cells were allowed to grow for the indicated time (7 hours for dose response experiments) prior to assaying. 100 μl of yeast culture were then added to 900 μl assay buffer (per liter: 60 mM Na2HPO4, 40 mM NaH2PO4, 10 mM KCl, 0.1 mM MgSO4, pH 7.0 plus 2.7 ml β-mercaptoethanol per liter) plus 50 μl 0.1%SDS+three drops Chloroform. Cells were vortexed for 10 seconds and incubated for 5 minutes at 28° C."}}, "data": [{"compound": "1-acyl-2-hydroxy-sn-glycero-3-phosphate [LPA]", "values": [{"measurement": "concentration at which toxicity was seen / above which testing was not possible due to toxicity", "setting": "yeast cells", "result": "above 600 μM"}, {"measurement": "response of FUS1::lacZ to LPA, sst2- derivative", "setting": "human LPA receptor EDG-2; JEY5 (sst2Δ) expressing EDG-2, 200 μM LPA, galactose, seven hours", "result": "activated"}, {"measurement": "activation of EDG-2 (FUS1::lacZ activity)", "setting": "human LPA receptor EDG-2; seven hours", "result": "specifically responds"}, {"measurement": "response of FUS1::lacZ to LPA, SST2+ strain", "setting": "human LPA receptor EDG-2; parental SY2069 strain (SST2+) expressing EDG-2", "result": "unresponsive"}, {"measurement": "maximal stimulation of lacZ activity as compared to vector control", "setting": "human LPA receptor EDG-2; time course, at 7 hours", "result": "four-fold"}]}, {"compound": "1-palmitoyl-2-oleoyl-phosphatidylglycerol", "values": [{"measurement": "activity towards EDG-2 of liposome preparations on their own", "setting": "human LPA receptor EDG-2", "result": "no activity"}]}, {"compound": "CCCCCCCCCCCCC/C=C/[C@@H](O)[C@@H](N)COP(=O)(O)O", "note": "[Sphingosine-1-phosphate]", "values": [{"measurement": "activation of EDG-2 (FUS1::lacZ activity)", "setting": "human LPA receptor EDG-2; seven hours", "result": "no other lyso-glycerolphospholipid or Sphingosine-1-phosphate activated EDG-2 as well as did LPA"}, {"measurement": "activation of EDG-2 (FUS1::lacZ activity)", "setting": "human LPA receptor EDG-2; seven hours, listed as sphingosine-1-phosphate", "result": "does not respond"}]}, {"compound": "dioleoyl-phosphatidylcholine", "values": [{"measurement": "activity towards EDG-2 of liposome preparations on their own", "setting": "human LPA receptor EDG-2", "result": "no activity"}]}]}
